Laboratory results reported in patent US20050107394A1, “Novel use of selective pde5 inhibitors” (priority 2001, published 2005).
Values joined by “and” are separate entries in the source; they are usually repeats but may differ in a detail not shown here. Identical values can stand only once. “Also recorded” adds a separate entry of the source.

Legend:
Assay type in all cases: in vivo, human
[1] = system: patients with chronic thromboembolism and displaying secondary PHT; experiment: Arterial oxygen partial pressure in patients with chronic thromboembolism; conditions: 7 patients; for effect on arterial oxygen partial pressure: FIG. 4; for arterial oxygen partial pressure (PaO2), improvement: NO 20 ppm inhaled, sildenafil 50 mg oral
Procedure: FIG. 4: Result of measurement of the arterial oxygen partial pressure (PaO2) on 7 patients with chronic thromboembolism and displaying secondary PHT (pulmonary hypertension). The arterial oxygen partial pressure was improved by NO (inhaled) [20 ppm] and sildenafil (oral) [50 mg] by respectively 1.8% and 7.6%, whereas the oxygen saturation fell by 13% after administration of PGI (intravenous). In the same experiment, the vascular resistance was measured and determined as delta PVR by a right cardiac catheterization. The vascular resistance was reduced respectively by 25%, 19% and 21% after administration of PGI (intravenous) [6 ng/kg bodyweight/min], NO (inhaled) [20 ppm] and sildenafil (oral) [50 mg].
(§1) 7 patients with CTEPH underwent a Swan-Ganz catheter investigation with measurement of the ventilation/perfusion (V/Q) distribution (using the multiple inert gas elimination technique (MIGET)). After determination of the baseline parameters (haemodynamics and gas exchange), all the patients initially inhaled 20 ppm NO, followed by a second baseline period (10-15 min), and then PGI was infused (6 ng/kg bodyweight/min), again followed by a second baseline period (10-15 min) and then an oral dose of 50 mg of sildenafil was given (120-150 min follow-up). 3 of the 7 patients were controlled by continuous nasal oxygen therapy in order to reach an arterial oxygenation of >88%. The following parameters were measured under baseline conditions: mean pulmonary arterial pressure (mPAP) 52.1 +/−3.3 mmHg, cardiac index (CI) 2.2+/−0.1 |* min^−1*m^−2, pulmonary vascular resistance index (PVRI) 1703.8+/−129.5 dyn*s*cm^−6*m^2, arterial pO2 72.5+/−3.3 mmHg and mixed venous oxygen saturation (SvO2) of 63.4+/−2.2%.

[2] = system: patients with ILD (interstitial lung disease) displaying secondary PHT; experiment: Shunting by MIGET in patients with ILD; conditions: 7 patients with ILD; for shunting / shunt perfusion (MIGET), level reached: baseline 7.2%, PGI i.v., NO 20 ppm inhaled, sildenafil 50 mg oral
Procedure: FIG. 5: Result of determination of the shunting on 7 patients with ILD (interstitial lung disease) displaying secondary PHT. The measurement took place by the inert gas exchange method (MIGET) [Wagner et al. J Appl Physiol. 1974;36:588-99]. The shunting was reduced to 5% and 4.8%, respectively, by NO (inhaled) [20 ppm] and sildenafil (oral) [50 mg]. The shunting was increased to 18% after administration of PGI (prostacyclin, intravenous) […]].
as §1, with “ILD” for “CTEPH”, “5” for “3”, “39.6+/−2.8 mmHg and” for “52.1 +/−3.3 mmHg, cardiac index (CI) 2.2+/−0.1 |* min^−1*m^−2,”, “1255+/−215 dyn*s*cm−5*m^2.” for “1703.8+/−129.5 dyn*s*cm^−6*m^2, arterial pO2 72.5+/−3.3 mmHg and mixed venous oxygen saturation (SvO2) of 63.4+/−2.2%.”

[3] = system: patients with ILD displaying secondary PHT; experiment: Pulmonary vascular resistance in patients with ILD; conditions: 7 patients with ILD
Procedure: as §1, with “ILD” for “CTEPH”, “5” for “3”, “39.6+/−2.8 mmHg and” for “52.1 +/−3.3 mmHg, cardiac index (CI) 2.2+/−0.1 |* min^−1*m^−2,”, “1255+/−215 dyn*s*cm−5*m^2.” for “1703.8+/−129.5 dyn*s*cm^−6*m^2, arterial pO2 72.5+/−3.3 mmHg and mixed venous oxygen saturation (SvO2) of 63.4+/−2.2%.”
By contrast, PGI (intravenous) increased the lung areas from 7% to almost 20% and thus caused a deterioration in matching (FIG. 5). Corresponding to the matching, PGI reduced the O2 saturation by 12%, whereas NO brought about an improvement of 5% and sildenafil one of 15% (FIG. 6).

[4] = system: patients with ILD displaying secondary PHT; experiment: Arterial oxygen partial pressure (delta PaO2) in patients with ILD; conditions: 7 patients with ILD; for arterial oxygen partial pressure (delta PaO2) / O2 saturation, increase: NO 20 ppm inhaled, sildenafil 50 mg oral
Text: FIG. 6: Result of determination of the arterial oxygen partial pressure (PaO2) on 7 patients with ILD displaying secondary PHT (pulmonary hypertension) measured as delta PaO2.
as §1, with “ILD” for “CTEPH”, “5” for “3”, “39.6+/−2.8 mmHg and” for “52.1 +/−3.3 mmHg, cardiac index (CI) 2.2+/−0.1 |* min^−1*m^−2,”, “1255+/−215 dyn*s*cm−5*m^2.” for “1703.8+/−129.5 dyn*s*cm^−6*m^2, arterial pO2 72.5+/−3.3 mmHg and mixed venous oxygen saturation (SvO2) of 63.4+/−2.2%.”

SMILES	effect on arterial oxygen partial pressure [1]	arterial oxygen partial pressure (PaO2), improvement [1] [%]	effect on shunting / ventilation/perfusion distribution [2]	shunting / shunt perfusion (MIGET), level reached [2]	effect on pulmonary vascular resistance [3]	pulmonary vascular resistance (PVR), reduction [3]	arterial oxygen partial pressure (delta PaO2) / O2 saturation, increase [4]	arterial oxygen partial pressure / oxygen saturation, decrease ([1]; PGI intravenous 6 ng/kg/min) [%]	arterial oxygen partial pressure / oxygen saturation, decrease ([4]; PGI intravenous 6 ng/kg/min)
CCCc1nn(C)c2c(=O)[nH]c(-c3cc(S(=O)(=O)N4CCN(C)CC4)ccc3OCC)nc12 [sildenafil, 5-[2-ethoxy-5-(4-methyl-1-piperazinyl-sulphonyl)phenyl]-1-methyl-3-n-propyl-1,6-dihydro-7H-pyrazolo[4,3-d]pyrimidin-7-one]	increased	7.6	virtually unchanged; also recorded: no effect	4.8%	marked reduction	about 25%	15% and 13%	–	–
CCCCC[C@H](O)/C=C/[C@@H]1[C@H]2C/C(=C/CCCC(=O)O)O[C@H]2C[C@H]1O [PGI, prostacyclin]	–	–	–	18% and ~20%	marked reduction	about 25%	–	13	12.5% and 12%
[N]=O [NO, nitric oxide]	not changed	1.8	virtually unchanged; also recorded: no effect	5%	marked reduction	about 25%	5% and 4.8%	–	–
